Test results: ChEMBL document CHEMBL1201862, “PubChem BioAssay data set” (2004)
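Values below derive from 48-hour exposures of cells grown in 96-well plates, with endpoints linearly interpolated between the two concentrations bracketing the appropriate inhibition level. GI50 is the concentration that inhibits growth by half.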 Activity calls are given as the source filed them. Cut-off read from the data, not from the text of the source: active = GI50 up to about 1.1 µM and inactive = higher.

Experiments:
Test in all cases: NCI tumour cell line growth inhibition, 48 h
HCC 2998 = test system: HCC 2998
HT-29 = test system: HT-29
LOX IMVI = test system: LOX IMVI
SF-295 = test system: SF-295
PC-3 = test system: PC-3
HCT-116 = test system: HCT-116
SN12C = test system: SN12C
ACHN = test system: ACHN
NCI-H522 = test system: NCI-H522
MOLT-4 = test system: MOLT-4
Hs-578T = test system: Hs-578T
M14 = test system: M14
NCI-H226 = test system: NCI-H226
UO-31 = test system: UO-31
MDA-MB-231 = test system: MDA-MB-231
SK-MEL-2 = test system: SK-MEL-2
OVCAR-3 = test system: OVCAR-3
MDA-MB-435 = test system: MDA-MB-435
SNB-19 = test system: SNB-19
DU-145 = test system: DU-145
OVCAR-8 = test system: OVCAR-8
IGROV-1 = test system: IGROV-1
A498 = test system: A498
SF-539 = test system: SF-539
TK-10 = test system: TK-10
SR = test system: SR
COLO 205 = test system: COLO 205
NCI-H23 = test system: NCI-H23
BT-549 = test system: BT-549
A549 = test system: A549
HL-60 = test system: HL-60
Malme-3M = test system: Malme-3M
OVCAR-4 = test system: OVCAR-4
KM12 = test system: KM12
HCT-15 = test system: HCT-15
RPMI-8226 = test system: RPMI-8226
SF-268 = test system: SF-268
MCF7 = test system: MCF7
SK-MEL-28 = test system: SK-MEL-28
RXF 393 = test system: RXF 393
T47D = test system: T47D
K562 = test system: K562
SK-MEL-5 = test system: SK-MEL-5
786-0 = test system: 786-0
SK-OV-3 = test system: SK-OV-3
UACC-257 = test system: UACC-257
NCI-H460 = test system: NCI-H460
HOP-62 = test system: HOP-62
SW-620 = test system: SW-620
NCI/ADR-RES = test system: NCI/ADR-RES
MDA-N = test system: MDA-N
UACC-62 = test system: UACC-62
SNB-75 = test system: SNB-75
OVCAR-5 = test system: OVCAR-5
U-251 = test system: U-251
CCRF-CEM = test system: CCRF-CEM
EKVX = test system: EKVX

Cc1nc(-c2ccc(/N=C/c3ccc(N(CCOS(C)(=O)=O)CCOS(C)(=O)=O)cc3C)cc2)cs1
GI50 (HCC 2998): 30 µM (inactive) | GI50 (HT-29): 30.3 µM (inactive) | GI50 (LOX IMVI): 19.4 µM (inactive) | GI50 (SF-295): 37.7 µM (inactive) | GI50 (PC-3): 20.9 µM (inactive) | GI50 (HCT-116): 34.8 µM (inactive) | GI50 (SN12C): 27.8 µM (inactive) | GI50 (ACHN): 3.82 µM (inactive) | GI50 (NCI-H522): 24.3 µM (inactive) | GI50 (MOLT-4): 2.09 µM (inactive) | GI50 (Hs-578T): 88.3 µM (inactive) | GI50 (M14): 60 µM (inactive) | GI50 (NCI-H226): 5.71 µM (inactive) | GI50 (UO-31): 18.7 µM (inactive) | GI50 (MDA-MB-231): 72.8 µM (inactive) | GI50 (SK-MEL-2): > 100 µM (inactive) | GI50 (OVCAR-3): 30.8 µM (inactive) | GI50 (MDA-MB-435): 72.9 µM (inactive) | GI50 (SNB-19): > 100 µM (inactive) | GI50 (DU-145): 11.5 µM (inactive) | GI50 (OVCAR-8): 51.9 µM (inactive) | GI50 (IGROV-1): 28.8 µM (inactive) | GI50 (A498): 2.31 µM (inactive) | GI50 (SF-539): 3.04 µM (inactive) | GI50 (TK-10): 55.5 µM (inactive) | GI50 (SR): 9.51 µM (inactive) | GI50 (COLO 205): 28.5 µM (inactive) | GI50 (NCI-H23): 35.4 µM (inactive) | GI50 (BT-549): 28.2 µM (inactive) | GI50 (A549): 11.3 µM (inactive) | GI50 (HL-60): 3.94 µM (inactive) | GI50 (Malme-3M): 28.9 µM (inactive) | GI50 (OVCAR-4): 59.6 µM (inactive) | GI50 (KM12): 32.1 µM (inactive) | GI50 (HCT-15): 77.6 µM | GI50 (RPMI-8226): 17.8 µM (inactive) | GI50 (SF-268): 5.14 µM (inactive) | GI50 (MCF7): 2.44 µM (inactive) | GI50 (SK-MEL-28): 97.9 µM (inactive) | GI50 (RXF 393): 25.1 µM (inactive) | GI50 (T47D): 7.23 µM (inactive) | GI50 (K562): 26.5 µM (inactive) | GI50 (SK-MEL-5): 11.4 µM (inactive) | GI50 (786-0): 13.8 µM (inactive) | GI50 (SK-OV-3): 26.5 µM (inactive) | GI50 (UACC-257): 22.8 µM (inactive) | GI50 (NCI-H460): 9.46 µM (inactive) | GI50 (HOP-62): 35.1 µM (inactive) | GI50 (SW-620): 67.9 µM (inactive) | GI50 (NCI/ADR-RES): > 100 µM (inactive) | GI50 (MDA-N): 46 µM (inactive) | GI50 (UACC-62): 9.59 µM (inactive) | GI50 (SNB-75): 40.9 µM (inactive) | GI50 (OVCAR-5): 30.8 µM (inactive) | GI50 (U-251): 36.9 µM (inactive) | GI50 (CCRF-CEM): 3.65 µM (inactive)

Nc1nc2c(c(=O)[nH]1)C(c1ccccc1)CC(=O)N2 (centres undefined)
GI50 (HCC 2998): > 100 µM (inactive) | GI50 (HT-29): > 100 µM (inactive) | GI50 (LOX IMVI): > 100 µM (inactive) | GI50 (SF-295): > 100 µM (inactive) | GI50 (PC-3): > 100 µM (inactive) | GI50 (HCT-116): > 100 µM (inactive) | GI50 (SN12C): > 100 µM (inactive) | GI50 (ACHN): > 100 µM (inactive) | GI50 (MOLT-4): > 100 µM (inactive) | GI50 (Hs-578T): > 100 µM (inactive) | GI50 (M14): > 100 µM (inactive) | GI50 (NCI-H226): > 100 µM (inactive) | GI50 (UO-31): > 100 µM (inactive) | GI50 (MDA-MB-231): > 100 µM (inactive) | GI50 (SK-MEL-2): > 100 µM (inactive) | GI50 (OVCAR-3): > 100 µM (inactive) | GI50 (MDA-MB-435): > 100 µM (inactive) | GI50 (SNB-19): > 100 µM (inactive) | GI50 (DU-145): > 100 µM (inactive) | GI50 (OVCAR-8): > 100 µM (inactive) | GI50 (IGROV-1): > 100 µM (inactive) | GI50 (A498): > 100 µM (inactive) | GI50 (SF-539): > 100 µM (inactive) | GI50 (TK-10): > 100 µM (inactive) | GI50 (SR): > 100 µM (inactive) | GI50 (COLO 205): > 100 µM (inactive) | GI50 (NCI-H23): > 100 µM (inactive) | GI50 (BT-549): > 100 µM (inactive) | GI50 (A549): > 100 µM (inactive) | GI50 (Malme-3M): > 100 µM (inactive) | GI50 (OVCAR-4): > 100 µM (inactive) | GI50 (KM12): > 100 µM (inactive) | GI50 (HCT-15): > 100 µM | GI50 (RPMI-8226): > 100 µM (inactive) | GI50 (SF-268): > 100 µM (inactive) | GI50 (EKVX): > 100 µM (inactive) | GI50 (MCF7): > 100 µM (inactive) | GI50 (SK-MEL-28): > 100 µM (inactive) | GI50 (T47D): > 100 µM (inactive) | GI50 (K562): > 100 µM (inactive) | GI50 (SK-MEL-5): > 100 µM (inactive) | GI50 (786-0): > 100 µM (inactive) | GI50 (SK-OV-3): > 100 µM (inactive) | GI50 (UACC-257): > 100 µM (inactive) | GI50 (NCI-H460): > 100 µM (inactive) | GI50 (HOP-62): > 100 µM (inactive) | GI50 (SW-620): > 100 µM (inactive) | GI50 (NCI/ADR-RES): > 100 µM (inactive) | GI50 (MDA-N): > 100 µM (inactive) | GI50 (UACC-62): > 100 µM (inactive) | GI50 (SNB-75): > 100 µM (inactive) | GI50 (OVCAR-5): > 100 µM (inactive) | GI50 (U-251): > 100 µM (inactive)
